ChEMBL document CHEMBL1201862, “PubChem BioAssay data set” (2004)
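1) Cells in 96-well plates. 2) Compound, 48 h, 5 concentrations. 3) Linear interpolation between surrounding doses. 4) Unreached endpoint = highest concentration. Here, GI50 denotes the concentration required for 50% inhibition of growth.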 The source made the active and inactive calls. Rule as the data show it: active = GI50 up to about 1.1 µM and inactive = higher.

Key:
Assay in all cases: NCI anticancer screen, dose series, 48 h
LXFL 529 = tested on: LXFL 529
DMS-114 = tested on: DMS-114
HOP-18 = tested on: HOP-18
SNB-78 = tested on: SNB-78
DU-145 = tested on: DU-145
BT-549 = tested on: BT-549
Hs-578T = tested on: Hs-578T
MDA-MB-435 = tested on: MDA-MB-435
RXF 631 = tested on: RXF 631

Row | SMILES | GI50 (LXFL 529) | GI50 (DMS-114) | GI50 (HOP-18) | GI50 (SNB-78) | GI50 (DU-145) | GI50 (BT-549) | GI50 (Hs-578T) | GI50 (MDA-MB-435) | GI50 (RXF 631)
1 | O=C(NNc1ccc([N+](=O)[O-])cc1)C1OC(CO)C(O)C1O (stereo not given) | 38.3 µM (inactive) | > 100 µM (inactive) | > 100 µM (inactive) | > 100 µM (inactive) |  |  |  |  | 
2 | COc1ccc2c(c1)[n+]([O-])c(-c1cccc(Cl)c1)c(N)[n+]2[O-] |  | 23.1 µM (inactive) | > 100 µM (inactive) | 79.8 µM (inactive) |  |  |  |  | 
3 | O=c1cnnc2sc(=S)[nH]n12 |  |  |  |  | > 100 µM (inactive) | 14.1 µM (inactive) | 2.22 µM (inactive) | 24.7 µM (inactive) | 
4 | CN(C)CCNC(=O)c1cccc2cc3cc(O)ccc3nc12 |  | 1.37 µM (inactive) | 1.32 µM (inactive) | 2.47 µM (inactive) |  |  |  |  | 
5 | COC(=O)[C@]1(C)CCCn2c(=O)n(-c3ccccc3)c(=O)n21 |  |  |  |  | > 100 µM (inactive) | > 100 µM (inactive) | > 100 µM (inactive) | > 100 µM (inactive) | 
6 | CC(C)C(=O)Nc1cc(C(F)(F)F)ccc1[N+](=O)[O-] |  |  |  |  | > 100 µM (inactive) | > 100 µM (inactive) | > 100 µM (inactive) | > 100 µM (inactive) | 
7 | O=C1O/C(=C\c2ccc(O)cc2)C(c2ccc(O)c(Cl)c2)=C1Br |  |  |  |  | 12.9 µM (inactive) | 6.35 µM (inactive) | 11.6 µM (inactive) | 15.7 µM (inactive) | 
8 | N#C/C(=C/c1ccco1)C(=O)c1ccccc1 | > 100 µM (inactive) | > 100 µM (inactive) | > 100 µM (inactive) | > 100 µM (inactive) |  |  |  |  | > 100 µM (inactive)
9 | COc1cc(C2C(C(=O)Nc3ccccc3C)=C(C)NC(C)=C2C(=O)Nc2ccccc2C)ccc1O | > 100 µM (inactive) | > 100 µM (inactive) | > 100 µM (inactive) | > 100 µM (inactive) |  |  |  |  | > 100 µM (inactive)
10 | CC(C)(C)OC(=O)NC(CSSCC(NC(=O)OC(C)(C)C)C(=O)O)C(=O)O (stereo not given) |  |  |  |  | > 100 µM (inactive) | > 100 µM (inactive) | > 100 µM (inactive) | > 100 µM (inactive) | 
11 | Cc1cc(C)c(S(=O)(=O)N(CCCCCCN)OCCCN)c(C)c1 |  |  |  |  | 16.1 µM (inactive) | 17.8 µM (inactive) | 13.8 µM (inactive) | 62.1 µM (inactive) | 
12 | CS(=O)(=O)N/N=C/CN1C(=O)c2ccccc2C1=O | > 100 µM (inactive) | > 100 µM (inactive) | > 100 µM (inactive) | > 100 µM (inactive) |  |  |  |  | 
13 | COc1ccc(/C(Cl)=C(\C=O)c2ccc(OC)c(OC)c2)cc1 | 30.4 µM (inactive) | 25.9 µM (inactive) | 49.9 µM (inactive) | 29 µM (inactive) |  |  |  |  | 54.3 µM (inactive)
14 | COc1ccc(Br)c(CN2CCc3ccccc32)c1OS(=O)(=O)c1ccc(C)cc1 |  | 18.3 µM (inactive) | > 100 µM (inactive) | 23.3 µM (inactive) |  |  |  |  | 34.4 µM (inactive)
15 | CC1C(/C=C/c2ccoc2)ON2CCCC12 (stereo not given) | > 100 µM (inactive) |  | > 100 µM (inactive) | > 100 µM (inactive) |  |  |  |  | 
16 | CCN(CC)CCNC(=O)c1cc2cc(NC(=O)c3cc4cc(NC(=O)c5cc6cc(N)ccc6[nH]5)ccc4[nH]3)ccc2[nH]1 |  |  |  |  | > 100 µM (inactive) | > 100 µM (inactive) | > 100 µM (inactive) | > 100 µM (inactive) | 
17 | CN1c2ccccc2N(C(=O)c2ccc([N+](=O)[O-])cc2)C(CC(=O)O)c2cccn21 (stereo not given) | > 100 µM (inactive) | > 100 µM (inactive) |  | > 100 µM (inactive) |  |  |  |  | 
18 | S=C(N/N=C/c1ccccn1)N1CCCCCC1 |  |  |  |  | 0.115 µM (active) | < 0.01 µM (active) | 11.5 µM (inactive) | 0.148 µM (active) | 
19 | COC(C(O)c1ccc2c(c1)OCO2)P(=O)(c1ccccc1)c1ccccc1 (stereo not given) |  | 77.3 µM (inactive) |  | > 100 µM (inactive) |  |  |  |  | 
20 | C=C1CC[C@](C)(O)[C@@]2(C)CC[C@H]3C(=C(C)C)C(=O)C[C@]3(C)C[C@H]12 |  |  |  |  | > 50 µM (inactive) | 25.8 µM (inactive) | > 50 µM (inactive) | 17.5 µM (inactive) | 
21 | Nc1cc(O)c2cc(/N=N/c3ccc(/N=N/c4ccc(/N=N/c5ccc6cc(S(=O)(=O)O)cc(S(=O)(=O)O)c6c5)c5ccccc45)c4cc(S(=O)(=O)O)ccc34)c(S(=O)(=O)O)cc2c1 |  |  | > 100 µM (inactive) | > 100 µM (inactive) |  |  |  |  | 
22 | CC1CCC2C(C(=O)O[C@H]3C4CCO[C@@H](OC5OC(CO)C(O)C(O)C5O)C4[C@@]4(CO)O[C@@H]34)=CO[C@@H](OC3OC(CO)C(O)C(O)C3O)C12 (stereo not given in full) |  |  |  |  | > 10 µM (inactive) | > 10 µM (inactive) | > 10 µM (inactive) | > 10 µM (inactive) | 
23 | COC(=O)C1=C(O)c2cc3c(cc2[C@H](c2cc(OC)c(OC)c(OC)c2)C1C(=O)OC)OCO3 (stereo not given in full) | 56.5 µM (inactive) | 25 µM (inactive) | 29.2 µM (inactive) | 53.2 µM (inactive) |  |  |  |  | > 100 µM (inactive)
24 | COc1cc(C2c3cc4c(cc3[C@@H](Oc3ccc(F)cc3)C3COC(=O)[C@H]23)OCO4)cc(OC)c1O (stereo not given in full) |  |  | 87.1 µM (inactive) |  |  |  |  |  | 
25 | COC(=O)C1OC2(CCCC3CC32)O[C@H]1C(=O)OC (stereo not given in full) |  |  |  |  | > 100 µM (inactive) | > 100 µM (inactive) | > 100 µM (inactive) | > 100 µM (inactive) | 
26 | COc1cc2c(cc1OC)-c1c3c(cc4c1[C@@H](C2)N(C)CC4)OCO3 |  | 8.43 µM (inactive) | 18.2 µM (inactive) | 11.6 µM (inactive) |  |  |  |  | 
27 | COc1cc(/C=C/C(=O)CC(=O)/C=C/c2ccc(O)c(OC)c2)ccc1O [CURCUMIN] |  |  |  |  | 15.7 µM (inactive) | 4.97 µM (inactive) | 10.9 µM (inactive) | 2.98 µM (inactive) | 
